Data on one molecule can be found in US20160032327A1, “PROCESS FOR CULTURING DEINOCOCCUS BACTERIA” (DEINOVE, priority 2012, published 2016).

In assay [1] the test system is Deinococcus radiodurans R1. The source says:
(§1) And the “Inhibitory Concentration of an oxidizer towards a Deinococcus or a related bacterium” (“ICD”) refers to the minimum concentration of said oxidizer in the culture medium that inhibits or reduces the growth of the Deinococcus. The IC may be easily ascertained for each microorganism or each strain thereof, and for each oxidizer, by implementing test cultures. For example, the strain of interest may be cultivated in several parallel cultures, each of said cultures containing an increased concentration of the oxidizer. After 2 or 3 days, the cultures are observed to measure the microbial growth and thereby to determine the IC.
(§2) Preculture was done for 3 days in CMG 1%. After checking the purity of the culture, cell pellet was washed three times in sterile water and then DO was adjusted to 2.
(§3) Hydrogen peroxide stock solution: H2O2 (30%wt solution, SIGMA ref. 216763, stored at 4° C.)
(§4) Preparation of the H2O2 range:
(§5) Dispense 180 μl of media into culture wells (200 μl into blank wells)
(§6) Add 20 μL of washed cell pellet at an optical density (600 nm) of 2 into well to be inoculated.
(§7) Gently add 50 μL of mineral oil on the well surface to limit evaporation.
(§8) Microplate was incubated for 3 days at 30 or 45° C. according to the optimal growth temperature indicated in the first part. Growth was monitored by an absorbance measure.

The test system of assay [2] is Escherichia coli K12. Conditions: E. coli, 30° C., CMG medium.
Excerpt: as §1, §2, §3, §4, §5, §6, §7, §8

Assay [3] concerns M36-7D_17.
Excerpt: as §1, §2, §3, §4, §5, §6, §7, §8

For assay [4], the system named is M36-7D_21.
Excerpt: as §1, §2, §3, §4, §5, §6, §7, §8

The test system of assay [5] is M36-7Dwt.
Excerpt: as §1, §2, §3, §4, §5, §6, §7, §8

The subject of assay [6] is Saccharomyces cerevisiae 2640. Conditions: S. cerevisiae, 30° C., CMG medium.
Excerpt: as §1, §2, §3, §4, §5, §6, §7, §8

Assay [7] concerns Zymomonas mobilis DSM424. The note with it: Z. mobilis, 30° C., CMG medium.
Excerpt: as §1, §2, §3, §4, §5, §6, §7, §8

In assay [8] the test system is M36-7D_21. Conditions: no growth after 24 or 96 h on agar plates at 45° C. On the procedure:
(§9) Deinococcus geothermalis M36-7D—21 and MX61E—04 were cultivated in 20% starch effluent pH 5 containing 15 mM NH4Cl and 5.30 mM K2HPO4
(§10) 5 ml of the cultures were treated during one hour with different concentration of H2O2 (20, 50,100, 150 and 200 mM) at room temperature or at 45° C.
(§11) The control sample corresponds to untreated sample (0 mM H2O2).
(§12) The control and treated samples were then spread on agar plates containing 10% effluent starch and incubated during 24 and 96 hours at 45° C.
(§13) The inhibitory concentration (IC expressed in mM) is the hydrogen peroxide concentration from which there was no growth after 24 or 96 h.

Assay [9] has as its system MX6-1E_04. Conditions: no growth after 24 or 96 h on agar plates at 45° C. On the procedure:
as §9, §10, §11, §12, §13

Assay [10] deals with Deinococcus geothermalis M36-7D—21. On the procedure:
The growth of Deinococcus geothermalis M36-7D—21 was performed in microplates in CMG medium containing Peptone 2 g/L; Yeast Extract 5 g/L; Glucose 55 mM (10 g/L); MOPS acid 40 mM; NH4Cl 20 mM; NaOH 10 mM; KOH 10 mM; CaCl2.2H2O 0.5 μM; Na2SO4.10H2O 0.276 mM; MgCl2.6H2O 0.528 mM; (NH4)6(Mo7)O24.4H2O 3 nM; H3BO3 0.4 μM; CoCl2.6H2O 30 nM; CuSO4.5H2O 10 nM; MnCl2 0.25 μM; ZnSO4.7H2O 10 nM; D-Biotin 1 μg/L; Niacin (nicotinic acid) 1 μg/L; Pyridoxin (pyridoxal HCl ou vitamine B6) 1 μg/L; Thiamin HCl (vitamine B1); FeCl3 20 μM; Sodium Citrate.2H2O 20 μM; K2HPO4 5,7 mM.
The addition of 100 mM hydrogen peroxide was made at TO (begin of the growth) or at the exponential phase.
The growth was monitored by measuring the OD600 nm.

Assay [11] relates to M36-7D_18.
Where [12] appears, read: one hour treatment at room temperature.

SMILES strings stand for the structures. Like-named read-outs stand apart in the source and are kept apart here. Bounds are passed on as bounds.

As for `OO` [hydrogen peroxide], the “Concentration of hydrogen peroxide in the presence of which the strain is able to grow” value in assay [1] (D. radiodurans R1), in [3] (modified D. geothermalis M36-7D (M36-7D_17)), in assay [4] (modified D. geothermalis M36-7D (M36-7D_21)), in assay [5] (D. geothermalis M36-7Dwt) and in assay [11] (modified D. geothermalis M36-7D (M36-7D_18)) was “up to 190 mM” throughout. In addition, the “IC: concentration of hydrogen peroxide from which there was no growth after 3 days of incubation” value in [1] (D. radiodurans R1, 30° C., CMG medium, 3 days) amounted to 200 mM; in [2], 10 mM; in assay [3] (M36-7D_17, CMG medium, 3 days), 200 mM; in [4] (M36-7D_21, CMG medium, 3 days), 200 mM; in assay [5] (M36-7Dwt, 45° C., CMG medium, 3 days), 200 mM; in [6], 20 mM. For the same molecule, the “IC: concentration of hydrogen peroxide from which there was no growth after 3 days of incubation” value in [7] is 10 mM; in [11] (M36-7D_18, CMG medium, 3 days), 200 mM. Also, the “Inhibitory concentration (mM) of hydrogen peroxide” value was 200 mM in assay [8] (one hour treatment at 45° C.), more than 200 mM in assay [8] (setting [12]), 50 mM in assay [9] (one hour treatment at 45° C.) and 100 mM in assay [9] (setting [12]). The “Effect on growth of M36-7D—21 (OD600 nm)” value in assay [10] (100 mM hydrogen peroxide added at TO (begin of the growth)) and in [10] (100 mM hydrogen peroxide added at the exponential phase) was “did not affect the growth” in each case.
